According to patent US20240083861A1, “HSD17B13 INHIBITORS AND USES THEREOF” (FL2022-001, Inc., priority 2020, published 2024):

Molecular target: T1, Recombinant human HSD17B13 enzyme (Homo sapiens, UniProt Q7Z5P4)
T1 sequence (Q7Z5P4 20-300): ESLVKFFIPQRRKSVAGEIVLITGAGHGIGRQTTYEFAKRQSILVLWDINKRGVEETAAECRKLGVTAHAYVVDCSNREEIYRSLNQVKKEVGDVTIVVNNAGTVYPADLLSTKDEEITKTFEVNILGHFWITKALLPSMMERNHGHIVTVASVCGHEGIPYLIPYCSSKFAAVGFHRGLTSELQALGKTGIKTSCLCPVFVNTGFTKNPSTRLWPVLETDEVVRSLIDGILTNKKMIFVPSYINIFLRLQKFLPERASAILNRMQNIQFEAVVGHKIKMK
Experiment: HSD17b13 NAD(P)H-Glo biochemical assay
Settings: 50 uM estradiol, 1 mM NAD+, NAD(P)H-Glo luminescence; read-out: HSD17β13 IC50
Method in brief: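 Luminescent NAD(P)H-Glo read-out, taken after 1 hour at RT, measured cofactor reduction. Substrate and cofactor were estradiol at 50 uM and NAD+ at 1 mM final, reacted with the recombinant human enzyme for 3 hours at 37° C in 20 mM Tris pH7.4, 0.002% Tween-20, 0.02% BSA. Compound was pre-incubated with enzyme for 20 minutes at RT.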

Structure (SMILES) | IC50
O=C(NCC1(O)CCC1)c1ccc2oc(-c3cc(C(F)(F)F)c(F)c(O)c3F)nc2c1 [Compound 1.30, 2-(2,4-Difluoro-3-hydroxy-5-(trifluoromethyl)phenyl)-N-((1-hydroxycyclobutyl)methyl)benzo[d] oxazole-5-carboxamide] | 100 to 1000 nM
O=C(NC1CCCCC1)c1ccc2oc(-c3cc(O)c(F)c(F)c3)nc2c1 [Compound 1.03, N-Cyclohexyl-2-(3,4-difluoro-5-hydroxyphenyl)benzo[d]oxazole-5-carboxamide] | < 100 nM
O=C(c1ccc2oc(-c3cc(O)c(F)c(F)c3)nc2c1)N1CCOCC1 [Compound 1.06, (2-(3,4-Difluoro-5-hydroxyphenyl)benzo[d]oxazol-5-yl)(morpholino)methanone] | 100 to 1000 nM
COCC1(NC(=O)c2ccc3oc(-c4cc(C(F)(F)F)c(F)c(O)c4F)nc3c2)CCC1 [Compound 1.26, 2-(2,4-Difluoro-3-hydroxy-5-(trifluoromethyl)phenyl)-N-(1-(methoxymethyl)cyclobutyl)benzo[d] oxazole-5-carboxamide] | < 100 nM

Further lines, results first:

IC50 | Structure (SMILES)
100 to 1000 nM | CN1CCN(c2cc3c(cn2)c(-c2cc(C(F)(F)F)c(F)c(O)c2F)nn3C)C(=O)C1 [Compound 9.102, 1-(3-(2,4-Difluoro-3-hydroxy-5-(trifluoromethyl)phenyl)-1-methyl-1H-pyrazolo[4,3-c]pyridin-6-yl)-4-methylpiperazin-2-one]
< 100 nM | Cc1cc(-c2n[nH]c3cc(C4CCN(S(C)(=O)=O)CC4)ccc23)c(F)c(O)c1F [Compound 15.01, 2,6-Difluoro-3-methyl-5-(6-(1-(methylsulfony1)piperidin-4-y1)-1H-indazol-3-yl)phenol]
100 to 1000 nM | CN(C)CC1CCN(c2ncc3c(-c4cc(C(F)(F)F)c(F)c(O)c4F)nn(C)c3n2)CC1 [Compound 18.34, 3-(6-(4-((Dimethylamino)methyl)piperidin-1-y1)-1-methyl-1H-pyrazolo[3,4-d]pyrimidin-3-y1)-2,6-difluoro-5-(trifluoromethyl)phenol]
< 100 nM | COC(=O)N1CCN(c2ncc3c(-c4cc(C(F)(F)F)c(F)c(O)c4F)nn(C)c3n2)CC12CCC2 [Compound 20.03, Methyl 8-(3-(2,4-difluoro-3-hydroxy-5-(trifluoromethyl)phenyl)-1-methyl-1H-pyrazolo[3,4-d]pyrimidin-6-yl)-5,8-diazaspiro[3.5]nonane-5-carboxylate]
< 100 nM | Cn1nc(-c2cc(C(F)(F)F)c(F)c(O)c2F)c2ccc(N3CCOCC34CCC4)nc21 [Compound 9.41, 2,6-Difluoro-3-(1-methyl-6-(8-oxa-5-azaspiro[3.5]nonan-5-yl)-1H-pyrazolo[3,4-b]pyridin-3-yl)-5-(trifluoromethyl)phenol]
< 100 nM | Cn1nc(-c2cc(C(F)(F)F)c(F)c(O)c2F)c2cnc(N3CCC(O)(c4cccnc4)CC3)nc21 [Compound 18.88, 1-(3-(2,4-Difluoro-3-hydroxy-5-(trifluoromethyl)phenyl)-1-methyl-1H-pyrazolo[3,4-d]pyrimidin-6-yl)-4-(pyridin-3-yl)piperidin-4-ol]
< 100 nM | Cn1nc(-c2cc(C(F)(F)F)c(F)c(O)c2F)c2cnc(N3CC4CCC3CC4)cc21 [Compound 9.42, 3-(6-(2-Azabicyclo[2.2.2]octan-2-yl)-1-methyl-1H-pyrazolo[4,3-c]pyridin-3-yl)-2,6-difluoro-5-(trifluoromethyl)phenol]
< 100 nM | Cn1nc(-c2cc(C(F)(F)F)cc(O)c2F)c2cnc(N3CCN(S(C)(=O)=O)CC3)cc21 [Compound 9.01, 2-Fluoro-3-(1-methyl-6-(4-(methylsulfonyl)piperazin-1-yl)-1H-pyrazolo[4,3-c]pyridin-3-yl)-5-(trifluoromethyl)phenol]
< 100 nM | CC(=O)N(C)C1CCN(c2ncc3c(-c4cc(C(F)(F)F)c(F)c(O)c4F)nn(C)c3n2)CC1 [Compound 18.28, N-(1-(3-(2,4-Difluoro-3-hydroxy-5-(trifluoromethyl)phenyl)-1-methyl-1H-pyrazolo[3,4-d]pyrimidin-6-yl)piperidin-4-y1)-N-methylacetamide]
